This test has as its target T1, human PD-1 (Jurkat-PD-1 cells) / PE-labeled human PD-L1-Ig (Homo sapiens, UniProt Q15116).
T1 construct: expressed in transfected cells; host or cells: Jurkat cell line over-expressing human PD-1
The experiment in a line: Jurkat-PD-1 Cell Binding High-Content Screening Assay (CBA); Jurkat hPD1-PDL1 assay. The note with it: Jurkat cell line over-expressing human PD-1; PE-labeled PD-L1-Ig 20 nM final; compound incubated 2 hours at 37° C.; read-out: Jurkat HPD1-PDL1 IC50. The method in brief:
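Cell binding by imaging: Jurkat line stably over-expressing human PD-1, compound pre-exposure 2 h at 37° C, PE-conjugated PD-L1-Ig 20 nM final, medium DMEM containing 10% FCS.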

A word on the IC50: it is the point on the concentration scale where inhibition reaches its midpoint.

Positions of bridges follow the written chain, without caps; N, C: chain ends. Non-standard residues stand in square brackets, D forms with d. Residues, ends and D or L forms follow the SMILES beside them. ξ: configuration not given here. Phe(4-COOH) = N[C@@H](Cc1ccc(C(=O)O)cc1)C(=O)O; Bip = N[C@@H](Cc1ccc(-c2ccccc2)cc1)C(=O)O; NMeF = CN[C@@H](Cc1ccccc1)C(=O)O; dHyp = O=C(O)[C@H]1C[C@H](O)CN1; ξR = N=C(N)NCCCC(N)C(=O)O; NMeA = CN[C@@H](C)C(=O)O; Sar = CNCC(=O)O

T1 sequence (Q15116 25-288): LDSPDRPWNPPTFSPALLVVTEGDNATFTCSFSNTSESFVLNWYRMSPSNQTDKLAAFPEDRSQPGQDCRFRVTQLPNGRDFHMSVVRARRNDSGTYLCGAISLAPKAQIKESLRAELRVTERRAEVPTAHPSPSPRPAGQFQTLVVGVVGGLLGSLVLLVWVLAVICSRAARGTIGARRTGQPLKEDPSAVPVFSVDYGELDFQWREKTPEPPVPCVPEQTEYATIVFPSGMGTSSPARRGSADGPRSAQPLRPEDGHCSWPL

Take `CC(C)C[C@@H]1NC(=O)[C@H](Cc2c[nH]c3ccccc23)NC(=O)[C@H](CC(=O)O)NC(=O)[C@H](Cc2ccc(O)cc2)NC(=O)[C@H](Cc2ccccc2)NC(=O)CSC[C@@H](C(=O)N[C@@H](C)C(N)=O)NC(=O)[C@H](CO)NC(=O)[C@H](C(C)C)NC(=O)[C@H](CC(C)C)NC(=O)[C@H](CCCNC(=N)N)NC(=O)[C@H](Cc2ccccc2)N(C)C(=O)[C@H](C)N(C)C(=O)[C@H](CCCNC(=N)N)NC(=O)[C@H](Cc2ccc(-c3ccccc3)cc2)NC1=O` [Example 1078] ({CH2CO}-FYDWL[Bip]R[NMeA][NMeF]RLVSCA-NH2; thioether N-14): the IC50 was found to be 0.22 µM.
As for `CC(C)C[C@@H]1NC(=O)[C@H](Cc2c[nH]c3ccccc23)NC(=O)[C@H](CC(=O)O)NC(=O)[C@H](Cc2ccc(O)cc2)NC(=O)[C@H](Cc2ccccc2)NC(=O)CSC[C@@H](C(=O)N[C@H](C)C(N)=O)NC(=O)[C@H](CO)NC(=O)[C@H](C(C)C)NC(=O)[C@H](CC(C)C)NC(=O)[C@H](CC(N)=O)NC(=O)CN(C)C(=O)[C@H](C)N(C)C(=O)[C@H](C(C)C)NC(=O)[C@H](Cc2ccc(-c3ccccc3)cc2)NC1=O` [Example 1151] ({CH2CO}-FYDWL[Bip]V[NMeA][Sar]NLVSC[dA]-NH2; thioether N-14), the IC50 turned out to be 0.7 µM.
Then `CC(C)C[C@@H]1NC(=O)[C@H](Cc2c[nH]c3ccccc23)NC(=O)[C@H](CC(=O)O)NC(=O)[C@H](Cc2ccc(O)cc2)NC(=O)[C@H](Cc2ccccc2)NC(=O)CSC[C@@H](C(=O)N[C@@H](C)C(N)=O)NC(=O)[C@H](CO)NC(=O)[C@H](C(C)C)NC(=O)[C@H](CC(C)C)NC(=O)[C@H](CC(N)=O)NC(=O)[C@H]2C[C@H](O)CN2C(=O)[C@H](C)N(C)C(=O)[C@H](C(C)C)NC(=O)[C@H](Cc2ccc(-c3ccccc3)cc2)NC1=O` [Example 1054] ({CH2CO}-FYDWL[Bip]V[NMeA][dHyp]NLVSCA-NH2; thioether N-14), with 0.12 µM.
As to `CC(C)C[C@@H]1NC(=O)[C@H](CCCNC(=N)N)NC(=O)[C@H](Cc2ccccc2)N(C)C(=O)[C@H](C)N(C)C(=O)[C@H](C(C)C)NC(=O)[C@H](Cc2ccc(-c3ccccc3)cc2)NC(=O)[C@H](C(C)C)NC(=O)[C@H](Cc2c[nH]c3ccccc23)NC(=O)[C@H](CC(=O)O)NC(=O)[C@H](Cc2ccc(O)cc2)NC(=O)[C@H](Cc2ccccc2)NC(=O)CSC[C@@H](C(=O)N[C@@H](C)C(N)=O)NC(=O)[C@H](CO)NC(=O)[C@H](C(C)C)NC1=O` [Example 1115] ({CH2CO}-FYDWV[Bip]V[NMeA][NMeF]RLVSCA-NH2; thioether N-14), the IC50 was 0.4 µM.
As for `CC(C)C[C@@H]1NC(=O)[C@H](Cc2c[nH]c3ccccc23)NC(=O)[C@H](CC(=O)O)NC(=O)[C@H](Cc2ccc(C(=O)O)cc2)NC(=O)[C@H](Cc2ccccc2)NC(=O)CSC[C@@H](C(=O)N[C@@H](C)C(N)=O)NC(=O)[C@H](CO)NC(=O)[C@H](C(C)C)NC(=O)[C@H](CC(C)C)NC(=O)[C@H](CC(N)=O)NC(=O)CN(C)C(=O)[C@H](C)N(C)C(=O)[C@H](C(C)C)NC(=O)[C@H](Cc2ccc(-c3ccccc3)cc2)NC1=O` [Example 1066] ({CH2CO}-F[Phe(4-COOH)]DWL[Bip]V[NMeA][Sar]NLVSCA-NH2; thioether N-14), the IC50 was determined as 0.16 µM.
Then `CC(C)C[C@@H]1NC(=O)C(CCCNC(=N)N)NC(=O)[C@H](Cc2ccccc2)N(C)C(=O)[C@H](C)N(C)C(=O)[C@H](CCCNC(=N)N)NC(=O)[C@H](Cc2ccc(-c3ccccc3)cc2)NC(=O)[C@H](C(C)C)NC(=O)[C@H](Cc2c[nH]c3ccccc23)NC(=O)[C@H](CC(=O)O)NC(=O)[C@H](Cc2ccc(C(=O)O)cc2)NC(=O)[C@H](Cc2ccccc2)NC(=O)CSC[C@@H](C(=O)NCC(N)=O)NC(=O)[C@H](CO)NC(=O)[C@H](C(C)C)NC1=O` (stereo partly drawn) [Example 1222] ({CH2CO}-F[Phe(4-COOH)]DWV[Bip]R[NMeA][NMeF][ξR]LVSCG-NH2; thioether N-14), with 0.06 µM.

These data come from patent US20240360178A1, “MACROCYCLIC IMMUNOMODULATORS” (Bristol-Myers Squibb Company, priority 2021, published 2024).
